Experimental data as given in ChEMBL document CHEMBL5291721, “A preclinical secondary pharmacology resource illuminates target-adverse drug reaction associations of marketed drugs” (Nat Commun, 2023).

Legend:
Histamine H1 receptor = Histamine H1 receptor (Homo sapiens, UniProt P35367)
[1] = target: cGMP-inhibited 3',5'-cyclic phosphodiesterase 3A (Homo sapiens, UniProt Q14432); format: functional
[2] = target: 3',5'-cyclic-AMP phosphodiesterase 4D (Homo sapiens, UniProt Q08499); format: functional
[3] = target: T1, 5-hydroxytryptamine receptor 3A (Homo sapiens, UniProt P46098); format: functional
T1 sequence (P46098 whole entry): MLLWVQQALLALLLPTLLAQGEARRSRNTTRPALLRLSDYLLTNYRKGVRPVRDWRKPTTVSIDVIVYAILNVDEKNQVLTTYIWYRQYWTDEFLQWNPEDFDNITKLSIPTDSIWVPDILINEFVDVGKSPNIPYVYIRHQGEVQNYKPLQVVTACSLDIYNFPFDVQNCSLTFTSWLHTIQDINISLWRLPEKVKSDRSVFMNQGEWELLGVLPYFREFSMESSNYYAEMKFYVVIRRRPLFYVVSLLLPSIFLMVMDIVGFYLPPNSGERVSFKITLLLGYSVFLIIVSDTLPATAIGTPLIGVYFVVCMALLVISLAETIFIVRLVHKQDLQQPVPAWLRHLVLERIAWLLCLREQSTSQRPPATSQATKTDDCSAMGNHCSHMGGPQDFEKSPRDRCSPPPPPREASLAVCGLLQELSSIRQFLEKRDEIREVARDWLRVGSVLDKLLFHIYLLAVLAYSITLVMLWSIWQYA

Glucocorticoid receptor = target: T2, Glucocorticoid receptor (Homo sapiens, UniProt P04150)
T2 sequence (P04150 whole entry): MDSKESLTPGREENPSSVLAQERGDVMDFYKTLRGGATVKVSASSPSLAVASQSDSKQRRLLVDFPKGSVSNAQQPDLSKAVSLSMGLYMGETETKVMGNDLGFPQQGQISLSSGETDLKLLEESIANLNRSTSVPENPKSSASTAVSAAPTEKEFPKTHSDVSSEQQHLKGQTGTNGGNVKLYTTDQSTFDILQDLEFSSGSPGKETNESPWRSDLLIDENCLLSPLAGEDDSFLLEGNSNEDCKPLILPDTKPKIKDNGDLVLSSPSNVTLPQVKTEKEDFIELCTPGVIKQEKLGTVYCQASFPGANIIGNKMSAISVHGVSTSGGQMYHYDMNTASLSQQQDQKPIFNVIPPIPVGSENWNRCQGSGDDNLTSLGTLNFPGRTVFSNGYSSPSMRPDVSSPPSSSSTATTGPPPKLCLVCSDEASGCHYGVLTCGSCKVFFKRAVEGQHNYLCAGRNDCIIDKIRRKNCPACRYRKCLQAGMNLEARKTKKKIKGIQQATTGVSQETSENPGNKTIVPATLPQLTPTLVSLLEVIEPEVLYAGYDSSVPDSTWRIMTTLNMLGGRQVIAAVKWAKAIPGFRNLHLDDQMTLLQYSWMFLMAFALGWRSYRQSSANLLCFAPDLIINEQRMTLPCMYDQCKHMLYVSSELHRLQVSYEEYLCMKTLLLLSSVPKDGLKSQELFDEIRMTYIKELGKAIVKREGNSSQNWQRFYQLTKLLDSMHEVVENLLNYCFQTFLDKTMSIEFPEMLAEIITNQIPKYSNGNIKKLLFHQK

[4] = target: 5-hydroxytryptamine receptor 2B (Homo sapiens, UniProt P41595); format: functional, cell-based
[5] = target: Sodium-dependent dopamine transporter (Homo sapiens, UniProt Q01959)
[6] = target: Neuronal acetylcholine receptor subunit alpha-4 (Homo sapiens, UniProt P43681)
[7] = target: Voltage-gated inwardly rectifying potassium channel KCNH2 (Homo sapiens, UniProt Q12809); format: functional
Adenosine receptor A2a = Adenosine receptor A2a (Homo sapiens, UniProt P29274)
[8] = target: Gamma-aminobutyric acid receptor subunit alpha-1 (Rattus norvegicus, UniProt P62813)
[9] = target: Glutamate receptor ionotropic, NMDA 1 (Rattus norvegicus, UniProt P35439)
Vasopressin V2 receptor = Vasopressin V2 receptor (Homo sapiens, UniProt P30518)
[10] = target: Beta-2 adrenergic receptor (Homo sapiens, UniProt P07550)
[11] = target: T3, Alpha-1A adrenergic receptor (Homo sapiens, UniProt P35348); format: functional, cell-based
T3 sequence (P35348 whole entry): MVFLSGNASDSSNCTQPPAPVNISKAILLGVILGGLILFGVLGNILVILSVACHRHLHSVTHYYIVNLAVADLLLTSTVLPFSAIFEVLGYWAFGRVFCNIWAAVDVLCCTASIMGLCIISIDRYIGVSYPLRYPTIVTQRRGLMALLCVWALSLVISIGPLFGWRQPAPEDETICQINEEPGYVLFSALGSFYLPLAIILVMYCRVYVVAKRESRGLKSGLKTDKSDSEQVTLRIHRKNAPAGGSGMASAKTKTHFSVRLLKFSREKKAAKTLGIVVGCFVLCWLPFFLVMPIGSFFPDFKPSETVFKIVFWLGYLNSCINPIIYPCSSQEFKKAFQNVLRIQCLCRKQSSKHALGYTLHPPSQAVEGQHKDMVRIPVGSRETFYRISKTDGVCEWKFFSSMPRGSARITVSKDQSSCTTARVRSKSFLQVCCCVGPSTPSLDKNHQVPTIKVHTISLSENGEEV

[12] = target: T3, Alpha-1A adrenergic receptor; format: functional, cell-based; remark: listed apart in the source
Motilin receptor = Motilin receptor (Homo sapiens, UniProt O43193)
Histamine H2 receptor = Histamine H2 receptor (Homo sapiens, UniProt P25021); format: functional, cell-based
Note: assay procedure not described here.

Chain of cGMP-inhibited 3',5'-cyclic phosphodiesterase 3A (Q14432 whole entry): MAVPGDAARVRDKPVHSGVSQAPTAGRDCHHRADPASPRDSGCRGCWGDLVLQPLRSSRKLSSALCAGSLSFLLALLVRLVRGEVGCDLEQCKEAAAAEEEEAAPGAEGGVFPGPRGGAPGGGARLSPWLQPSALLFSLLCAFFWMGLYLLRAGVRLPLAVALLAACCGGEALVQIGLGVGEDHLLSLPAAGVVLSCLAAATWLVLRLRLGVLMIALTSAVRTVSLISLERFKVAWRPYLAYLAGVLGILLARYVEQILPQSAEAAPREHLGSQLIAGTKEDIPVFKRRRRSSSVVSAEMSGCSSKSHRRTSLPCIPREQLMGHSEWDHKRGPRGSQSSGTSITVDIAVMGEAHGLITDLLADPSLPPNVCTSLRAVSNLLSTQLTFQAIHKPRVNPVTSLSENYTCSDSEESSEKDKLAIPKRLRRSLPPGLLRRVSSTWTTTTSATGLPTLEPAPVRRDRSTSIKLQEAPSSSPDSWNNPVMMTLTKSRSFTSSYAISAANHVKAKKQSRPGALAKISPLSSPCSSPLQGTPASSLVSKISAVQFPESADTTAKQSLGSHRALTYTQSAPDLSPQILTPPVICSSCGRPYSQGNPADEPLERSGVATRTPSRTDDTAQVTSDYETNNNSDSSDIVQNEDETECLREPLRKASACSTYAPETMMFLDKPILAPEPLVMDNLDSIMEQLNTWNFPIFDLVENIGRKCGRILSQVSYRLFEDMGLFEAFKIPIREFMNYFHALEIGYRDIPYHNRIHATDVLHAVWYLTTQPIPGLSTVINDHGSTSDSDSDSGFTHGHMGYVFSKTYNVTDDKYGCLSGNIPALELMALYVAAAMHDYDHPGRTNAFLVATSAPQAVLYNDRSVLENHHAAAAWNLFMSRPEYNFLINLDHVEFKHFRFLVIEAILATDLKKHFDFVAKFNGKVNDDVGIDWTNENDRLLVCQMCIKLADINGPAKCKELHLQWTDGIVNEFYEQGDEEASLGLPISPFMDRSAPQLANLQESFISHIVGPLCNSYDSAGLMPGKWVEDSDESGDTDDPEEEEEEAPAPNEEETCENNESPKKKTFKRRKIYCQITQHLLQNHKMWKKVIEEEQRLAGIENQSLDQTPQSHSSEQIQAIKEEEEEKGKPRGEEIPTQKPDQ
Chain of Motilin receptor (O43193 whole entry): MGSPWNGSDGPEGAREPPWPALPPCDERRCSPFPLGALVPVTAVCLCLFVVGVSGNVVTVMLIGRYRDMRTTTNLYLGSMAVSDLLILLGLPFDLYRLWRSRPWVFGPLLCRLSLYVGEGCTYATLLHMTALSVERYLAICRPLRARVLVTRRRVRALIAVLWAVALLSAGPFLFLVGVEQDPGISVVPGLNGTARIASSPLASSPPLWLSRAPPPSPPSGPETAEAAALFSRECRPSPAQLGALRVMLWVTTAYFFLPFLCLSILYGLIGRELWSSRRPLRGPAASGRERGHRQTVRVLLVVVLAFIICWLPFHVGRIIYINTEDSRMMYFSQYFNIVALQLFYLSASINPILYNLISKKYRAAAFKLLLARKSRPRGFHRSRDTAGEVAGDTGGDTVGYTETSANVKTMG
Chain of 5-hydroxytryptamine receptor 2B (P41595 whole entry): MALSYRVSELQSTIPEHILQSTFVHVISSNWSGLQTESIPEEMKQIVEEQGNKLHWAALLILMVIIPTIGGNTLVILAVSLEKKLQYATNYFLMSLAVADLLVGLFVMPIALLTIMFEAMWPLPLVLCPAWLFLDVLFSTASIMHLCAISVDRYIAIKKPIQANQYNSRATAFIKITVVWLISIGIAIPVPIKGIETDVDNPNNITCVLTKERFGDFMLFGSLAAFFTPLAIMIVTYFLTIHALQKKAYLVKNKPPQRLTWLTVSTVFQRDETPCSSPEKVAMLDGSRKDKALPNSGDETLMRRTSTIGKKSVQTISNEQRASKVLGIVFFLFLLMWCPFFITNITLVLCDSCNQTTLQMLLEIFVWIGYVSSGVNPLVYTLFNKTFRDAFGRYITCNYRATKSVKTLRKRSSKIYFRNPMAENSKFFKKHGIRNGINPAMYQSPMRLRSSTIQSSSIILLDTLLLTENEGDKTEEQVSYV
Chain of 3',5'-cyclic-AMP phosphodiesterase 4D (Q08499 whole entry): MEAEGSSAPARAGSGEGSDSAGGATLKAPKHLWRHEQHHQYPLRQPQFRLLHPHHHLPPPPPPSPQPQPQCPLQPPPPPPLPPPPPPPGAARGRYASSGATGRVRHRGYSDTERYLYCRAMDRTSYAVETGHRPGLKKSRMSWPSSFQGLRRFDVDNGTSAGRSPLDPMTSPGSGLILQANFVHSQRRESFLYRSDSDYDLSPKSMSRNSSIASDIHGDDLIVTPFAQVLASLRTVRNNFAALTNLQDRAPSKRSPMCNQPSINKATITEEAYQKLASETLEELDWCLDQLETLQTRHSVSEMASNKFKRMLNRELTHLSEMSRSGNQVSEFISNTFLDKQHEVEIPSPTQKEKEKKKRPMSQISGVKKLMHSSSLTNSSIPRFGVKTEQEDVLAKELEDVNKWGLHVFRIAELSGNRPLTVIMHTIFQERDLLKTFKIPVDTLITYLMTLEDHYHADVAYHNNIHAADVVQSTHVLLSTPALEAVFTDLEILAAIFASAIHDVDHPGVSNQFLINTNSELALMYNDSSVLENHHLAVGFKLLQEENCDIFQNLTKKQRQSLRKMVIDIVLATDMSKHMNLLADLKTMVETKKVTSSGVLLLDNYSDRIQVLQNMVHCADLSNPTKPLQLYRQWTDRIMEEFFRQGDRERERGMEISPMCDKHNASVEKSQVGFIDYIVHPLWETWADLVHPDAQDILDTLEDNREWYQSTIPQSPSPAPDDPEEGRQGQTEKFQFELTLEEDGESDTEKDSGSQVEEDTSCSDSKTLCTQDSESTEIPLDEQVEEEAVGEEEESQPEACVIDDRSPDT
Chain of Neuronal acetylcholine receptor subunit alpha-4 (P43681 whole entry): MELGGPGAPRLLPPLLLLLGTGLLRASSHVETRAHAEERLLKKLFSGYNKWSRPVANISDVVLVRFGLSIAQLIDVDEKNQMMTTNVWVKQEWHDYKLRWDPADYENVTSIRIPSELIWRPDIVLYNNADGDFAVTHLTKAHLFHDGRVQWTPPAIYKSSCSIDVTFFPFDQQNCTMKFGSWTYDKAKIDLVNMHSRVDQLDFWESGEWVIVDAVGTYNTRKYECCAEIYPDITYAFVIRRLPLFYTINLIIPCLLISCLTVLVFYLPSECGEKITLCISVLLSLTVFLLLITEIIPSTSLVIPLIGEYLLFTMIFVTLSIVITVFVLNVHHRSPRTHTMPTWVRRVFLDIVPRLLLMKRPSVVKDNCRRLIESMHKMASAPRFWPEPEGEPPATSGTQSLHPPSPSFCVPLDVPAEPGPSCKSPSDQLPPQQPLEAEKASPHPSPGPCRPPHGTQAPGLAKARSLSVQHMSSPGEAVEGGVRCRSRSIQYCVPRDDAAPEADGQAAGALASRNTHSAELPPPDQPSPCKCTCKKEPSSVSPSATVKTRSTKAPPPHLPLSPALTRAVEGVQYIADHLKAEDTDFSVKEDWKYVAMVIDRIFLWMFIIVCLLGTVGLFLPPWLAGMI
Chain of Adenosine receptor A2a (P29274 whole entry): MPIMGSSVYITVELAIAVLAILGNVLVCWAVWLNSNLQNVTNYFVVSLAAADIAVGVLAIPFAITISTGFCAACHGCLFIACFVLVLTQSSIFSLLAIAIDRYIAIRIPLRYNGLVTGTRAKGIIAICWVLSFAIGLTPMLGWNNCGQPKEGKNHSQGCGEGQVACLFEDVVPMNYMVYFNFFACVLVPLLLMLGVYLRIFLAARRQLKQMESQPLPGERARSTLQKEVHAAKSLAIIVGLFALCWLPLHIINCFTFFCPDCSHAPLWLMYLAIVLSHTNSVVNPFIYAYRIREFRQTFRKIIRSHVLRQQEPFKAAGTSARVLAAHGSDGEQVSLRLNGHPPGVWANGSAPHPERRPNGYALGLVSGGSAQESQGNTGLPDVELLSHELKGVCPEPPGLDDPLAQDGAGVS
Chain of Sodium-dependent dopamine transporter (Q01959 whole entry): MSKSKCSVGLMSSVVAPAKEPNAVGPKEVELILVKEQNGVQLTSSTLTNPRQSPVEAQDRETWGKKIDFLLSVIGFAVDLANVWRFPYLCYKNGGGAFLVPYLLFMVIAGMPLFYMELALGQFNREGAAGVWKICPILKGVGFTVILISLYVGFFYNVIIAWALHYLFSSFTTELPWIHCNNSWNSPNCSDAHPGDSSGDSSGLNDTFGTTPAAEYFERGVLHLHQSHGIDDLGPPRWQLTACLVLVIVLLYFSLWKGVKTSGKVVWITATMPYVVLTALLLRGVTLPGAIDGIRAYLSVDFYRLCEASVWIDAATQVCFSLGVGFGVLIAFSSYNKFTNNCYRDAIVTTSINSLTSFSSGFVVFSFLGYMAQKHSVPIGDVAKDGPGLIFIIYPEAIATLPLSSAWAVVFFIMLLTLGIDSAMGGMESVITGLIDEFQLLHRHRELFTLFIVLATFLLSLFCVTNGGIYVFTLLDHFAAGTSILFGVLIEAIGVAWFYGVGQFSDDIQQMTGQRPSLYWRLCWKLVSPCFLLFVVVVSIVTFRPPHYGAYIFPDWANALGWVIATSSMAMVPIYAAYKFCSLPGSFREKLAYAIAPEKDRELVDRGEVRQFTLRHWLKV
Chain of Vasopressin V2 receptor (P30518 whole entry): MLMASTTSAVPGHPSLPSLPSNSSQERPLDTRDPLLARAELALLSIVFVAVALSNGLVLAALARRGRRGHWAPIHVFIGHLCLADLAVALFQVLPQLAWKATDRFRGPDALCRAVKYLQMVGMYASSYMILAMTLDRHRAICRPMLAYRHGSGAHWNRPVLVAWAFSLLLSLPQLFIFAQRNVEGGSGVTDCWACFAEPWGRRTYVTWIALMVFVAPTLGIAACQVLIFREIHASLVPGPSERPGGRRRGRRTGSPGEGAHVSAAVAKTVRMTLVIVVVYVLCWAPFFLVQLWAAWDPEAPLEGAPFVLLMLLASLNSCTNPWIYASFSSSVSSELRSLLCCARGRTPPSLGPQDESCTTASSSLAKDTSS

| Structure (SMILES) | AC50 (Histamine H1 receptor) [µM] | AC50 [1] [µM] | AC50 [2] [µM] | AC50 [3] [µM] | AC50 (Glucocorticoid receptor) [µM] | AC50 [4] [µM] | AC50 [5] [µM] | AC50 [6] [µM] | AC50 [7] [µM] | AC50 (Adenosine receptor A2a) [µM] | AC50 [8] [µM] | AC50 [9] [µM] | AC50 (Vasopressin V2 receptor) [µM] | AC50 [10] [µM] | AC50 [11] [µM] | AC50 [12] [µM] | AC50 (Motilin receptor) [µM] | AC50 (Histamine H2 receptor) [µM] |
| --- | --- | --- | --- | --- | --- | --- | --- | --- | --- | --- | --- | --- | --- | --- | --- | --- | --- | --- |
| CCN(CC)C(=O)Nc1ccc(OCC(O)CNC(C)(C)C)c(C(C)=O)c1 (stereo not drawn) [CELIPROLOL] | > 30 | > 30 | > 30 | > 30 | > 30 | > 30 | > 30 | > 30 | 17 | > 30 | > 30 | > 30 | > 30 | 4.6 | > 30 | > 30 | > 30 | > 30 |
| CCCCCCCCCCCCCCCCCCCCCC(=O)Nc1ccn([C@@H]2O[C@H](CO)[C@@H](O)[C@@H]2O)c(=O)n1 [ENOCITABINE] | > 30 | > 30 | > 30 | > 30 | > 30 | > 30 | > 30 | > 30 | > 30 | > 30 | > 30 | > 30 | > 30 | > 30 | > 30 | > 30 | > 30 | > 30 |
| CCN(CC)CCN1C(=O)CN=C(c2ccccc2F)c2cc(Cl)ccc21 [FLURAZEPAM] | > 10 | > 30 | > 30 | 20 | > 30 | > 10 | > 30 | > 10 | 0.896 | > 30 | > 10 | > 10 | > 30 | > 10 | > 30 | > 30 | > 10 | > 30 |
| CCCCCC(=O)O[C@]1(C(C)=O)CC[C@H]2[C@@H]3CCC4=CC(=O)CC[C@]4(C)[C@H]3CC[C@@]21C [HYDROXYPROGESTERONE CAPROATE] | > 30 | 30 | 25 | > 30 | 0.007 | > 30 | 21.3 | > 30 | > 30 | > 30 | > 30 | > 30 | > 30 | > 30 | > 30 | > 30 | 28.1 | > 30 |
| O=C(O)c1ccccc1Nc1cc(Cl)ccc1C(=O)O [LOBENZARIT] | > 30 | > 30 | > 30 | > 30 | > 30 | > 30 | > 30 | > 30 | > 30 | > 30 | > 30 | 25 | > 30 | > 30 | > 30 | > 30 | > 30 | > 30 |
| CCOC(=O)O[C@]1(C(=O)OCCl)CC[C@H]2[C@@H]3CCC4=CC(=O)C=C[C@]4(C)[C@H]3[C@@H](O)C[C@@]21C [LOTEPREDNOL ETABONATE] | > 30 | > 30 | > 30 | > 30 | 0.0056 | > 30 | > 30 | > 30 | > 30 | > 30 | > 30 | > 30 | > 30 | > 30 | > 30 | > 30 | > 30 | > 30 |
| Cc1ncc2n1-c1ccc(Cl)cc1C(c1ccccc1F)=NC2 [MIDAZOLAM] | > 10 | > 30 | 10 | > 30 | > 30 | > 10 | > 30 | > 10 | > 30 | > 30 | > 10 | > 10 | > 30 | > 10 | > 30 | > 30 | > 10 | > 30 |
| COc1ccc(-c2noc(CC(=O)O)c2-c2ccc(OC)cc2)cc1 [MOFEZOLAC] | > 30 | 13 | > 30 | > 30 | > 30 | > 30 | > 30 | > 30 | > 30 | > 30 | > 30 | > 30 | > 30 | > 30 | > 30 | > 30 | > 30 | > 30 |
| COc1ccc2nc3cc(Cl)ccc3c(Nc3cc(CN4CCCC4)c(O)c(CN4CCCC4)c3)c2n1 [PYRONARIDINE] | 21 | 5.7 | 24 | > 30 | > 30 | > 30 | 11 | 26 | 0.28 | > 30 | > 30 | > 30 | 18 | > 30 | > 30 | > 30 | > 30 | > 30 |
| CC1=C(C)C(=O)C(C(CCCCCC(=O)O)c2ccccc2)=C(C)C1=O (stereo not drawn) [SERATRODAST] | > 30 | 25 | 22 | > 30 | > 30 | > 30 | > 30 | > 30 | > 30 | > 30 | > 30 | > 30 | > 30 | > 30 | > 30 | > 30 | > 30 | > 30 |
| CCC(COC(=O)c1cc(OC)c(OC)c(OC)c1)(c1ccccc1)N(C)C (stereo not drawn) [TRIMEBUTINE] | > 30 | > 30 | 26 | > 30 | > 30 | > 30 | 27 | 15 | 1.7 | > 30 | > 30 | > 30 | > 30 | > 30 | > 30 | > 30 | > 30 | > 30 |
